From EP4707280A1, “1,4-CINEOLE DERIVATIVE AND INTERMEDIATE THEREOF, HERBICIDE CONTAINING SAID DERIVATIVE AS ACTIVE INGREDIENT, METHOD FOR USING HERBICIDE, AND METHOD FOR PREPARING AGROCHEMICAL COMPOSITION” (HOKKO CHEMICAL INDUSTRY CO., LTD., priority 2023, dated 2024)

What was measured:
Type in all cases: in vivo
[1] = test system: Echinochloa crus-galli var. formosensis; test: Test Example 1: herbicidal effect test by soil application in paddy rice; conditions: Echinochloa crus-galli, soil, 336 h; 120 g active ingredient per 10 ares; applied immediately after sowing, flooded pots; 14 days after application; read-out: weed inhibition rate
Summary of the method: (§1)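 Soil-applied test under flooded paddy conditions (~3 cm water) in a glass greenhouse. Seeds were sown shallow (0–1 cm, 30 per species), then compound was dripped in as diluted emulsifiable concentrate at 120 g a.i./10 a.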

[2] = test system: Scirpus juncoides; test: as above; conditions: Schoenoplectiella juncoides, soil, 336 h; 120 g active ingredient per 10 ares; applied immediately after sowing, flooded pots; 14 days after application; read-out: weed inhibition rate
Summary of the method: as §1

[3] = test system: Echinochloa crus-galli var. formosensis; test: Test Example 2: herbicidal effect test by application during growth period of paddy rice; conditions: Echinochloa crus-galli; 120 g per 10 ares; applied seven days after sowing, flooded pots; 14 days after application; read-out: weed inhibition rate
Summary of the method: (§2)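 Steps: puddle fertilized paddy soil; sow 30 seeds of each weed at 0–1 cm; flood to roughly 3 cm and keep in a glasshouse; at day 7 drop in diluted emulsifiable concentrate (120 g a.i. per 10 ares); score inhibition (%) 14 days later, two replicates.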

[4] = test system: Scirpus juncoides; test: as above; conditions: Schoenoplectiella juncoides; 120 g per 10 ares; applied seven days after sowing, flooded pots; 14 days after application; read-out: weed inhibition rate
Summary of the method: as §2

[5] = test system: Digitaria ciliaris; test: Test Example 3: herbicidal effect test by soil application in upland field; conditions: Digitaria ciliaris, 120 g per 10 ares, sprayed one day after sowing, 14 days after application, read-out: weed inhibition rate
Summary of the method: (§3)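 Pre-emergence test: seeds mixed into top 1 cm of alluvial loam upland soil in pots; emulsifiable concentrate diluted in water sprayed on soil one day after sowing at 100 L/10 a, 120 g a.i./10 a. Weed inhibition rate (%) scored at 14 days, in duplicate.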

[6] = test system: Echinochloa crus-galli; test: as above; conditions: Echinochloa crus-galli, 120 g per 10 ares, sprayed one day after sowing, 14 days after application, read-out: weed inhibition rate
Summary of the method: as §3

[7] = test system: Digitaria ciliaris; test: Test Example 4: herbicidal effect test by stem and leaf treatment in upland field; conditions: Digitaria ciliaris; 120 g per 10 ares; sprayed seven days after sowing, upland soil; 14 days after application; read-out: weed inhibition rate
[8] = test system: Echinochloa crus-galli; test: as above; conditions: Echinochloa crus-galli; 120 g per 10 ares; sprayed seven days after sowing, upland soil; 14 days after application; read-out: weed inhibition rate
[9] = test system: Echinochloa crus-galli var. formosensis; test: Test Example 5: herbicidal effect test by soil application in paddy rice (low dose); conditions: Echinochloa crus-galli, soil, 336 h; 7.5 g per 10 ares; applied immediately after sowing, flooded pots; 14 days after application; read-out: weed inhibition rate
Summary of the method: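 Flooded-paddy soil application at low dose (7.5 g a.i. per 10 ares), given by dropper as diluted emulsifiable concentrate directly after sowing weeds 0–1 cm deep. Effect evaluated after 14 days in duplicate.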

[10] = test system: Echinochloa crus-galli var. formosensis; test: Test Example 6: herbicidal effect test by application during growth period of paddy rice (low dose); conditions: Echinochloa crus-galli; 7.5 g per 10 ares; applied seven days after sowing, flooded pots; 14 days after application; read-out: weed inhibition rate
Summary of the method: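 Paddy soil in flooded Wagner pots (about 3 cm water), weeds sown at 0–1 cm, 30 seeds each, grown in a glass greenhouse. Seven days after sowing, water-diluted emulsifiable concentrate was dropped into the water at 7.5 g active ingredient per 10 ares. Weed inhibition rate (%) was scored 14 days after application, in duplicate.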

[11] = test system: Digitaria ciliaris; test: Test Example 7: herbicidal effect test by soil application in upland field (low dose); conditions: Digitaria ciliaris, 7.5 g per 10 ares, sprayed one day after sowing, 14 days after application, read-out: weed inhibition rate
Summary of the method: (§4)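 Upland soil (alluvial loam) pots, seeds mixed into top 1 cm layer → EC formulation diluted with water, sprayed onto soil 1 d post-sowing, 100 L/10 a → 7.5 g a.i./10 a → inhibition (%) scored at 14 d, n=2.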

[12] = test system: Echinochloa crus-galli; test: as above; conditions: Echinochloa crus-galli, 7.5 g per 10 ares, sprayed one day after sowing, 14 days after application, read-out: weed inhibition rate
Summary of the method: as §4

[13] = test system: Digitaria ciliaris; test: Test Example 8: herbicidal effect test by stem and leaf treatment in upland field (low dose); conditions: Digitaria ciliaris; 7.5 g per 10 ares; sprayed seven days after sowing, upland soil; 14 days after application; read-out: weed inhibition rate
[14] = test system: Echinochloa crus-galli; test: as above; conditions: Echinochloa crus-galli; 7.5 g per 10 ares; sprayed seven days after sowing, upland soil; 14 days after application; read-out: weed inhibition rate

CC(C)[C@]12C[C@@H](OCc3c(F)cccc3Cl)[C@](C)(C[C@@H]1I)O2 [1-780, (1R,2S,4S,5R)-5-[(2-chloro-6-fluoro-phenyl)methoxy]-2-iodo-1-isopropyl-4-methyl-7-oxabicyclo[2.2.1]heptane]
≥ 80%: pest or weed control at 1200 g/ha [1] | pest or weed control at 1200 g/ha [2] | inhibition at 1200 g/ha [3] | inhibition at 1200 g/ha [4] | inhibition at 1200 g/ha [5] | inhibition at 1200 g/ha [6] | inhibition at 1200 g/ha [7] | inhibition at 1200 g/ha [8] | inhibition at 75 g/ha [9] | inhibition at 75 g/ha [10] | inhibition at 75 g/ha [11] | inhibition at 75 g/ha [12] | inhibition at 75 g/ha [13] | inhibition at 75 g/ha [14]

CC(C)[C@]12C[C@@H](OCc3ccccc3)[C@](C)(C[C@@H]1I)O2 [1-740, (1R,2S,4S,5R)-5-benzyloxy-2-iodo-1-isopropyl-4-methyl-7-oxabicyclo[2.2.1]heptane]
≥ 80%: pest or weed control at 1200 g/ha [1] | pest or weed control at 1200 g/ha [2] | inhibition at 1200 g/ha [3] | inhibition at 1200 g/ha [4] | inhibition at 1200 g/ha [5] | inhibition at 1200 g/ha [6] | inhibition at 1200 g/ha [7] | inhibition at 1200 g/ha [8] | inhibition at 75 g/ha [9] | inhibition at 75 g/ha [10] | inhibition at 75 g/ha [11] | inhibition at 75 g/ha [12] | inhibition at 75 g/ha [13] | inhibition at 75 g/ha [14]

CC(C)[C@]12CC(OCc3c(Cl)cccc3Cl)[C@](C)(C[C@@H]1I)O2 (mixture of isomers) [1-779, (1R,2S,4S,SR)-5-[(2,6-dichlorophenyl)methoxy]-2-iodo-1-isopropyl-4-methyl-7-oxabicyclo[2.2.1]heptane]
≥ 80%: pest or weed control at 1200 g/ha [1] | pest or weed control at 1200 g/ha [2] | inhibition at 1200 g/ha [3] | inhibition at 1200 g/ha [4] | inhibition at 1200 g/ha [5] | inhibition at 1200 g/ha [6] | inhibition at 1200 g/ha [7] | inhibition at 1200 g/ha [8] | inhibition at 75 g/ha [9] | inhibition at 75 g/ha [10] | inhibition at 75 g/ha [11] | inhibition at 75 g/ha [12] | inhibition at 75 g/ha [13] | inhibition at 75 g/ha [14]

CC(C)[C@]12C[C@@H](OCc3ccccc3I)[C@](C)(C[C@@H]1I)O2 [1-762, (1R,2S,4S,5R)-2-iodo-5-[(2-iodophenyl)methoxy]-1-isopropyl-4-methyl-7-oxabicyclo[2.2.1]heptane]
≥ 80%: pest or weed control at 1200 g/ha [1] | pest or weed control at 1200 g/ha [2] | inhibition at 1200 g/ha [3] | inhibition at 1200 g/ha [4] | inhibition at 1200 g/ha [5] | inhibition at 1200 g/ha [6] | inhibition at 1200 g/ha [7] | inhibition at 1200 g/ha [8] | inhibition at 75 g/ha [9] | inhibition at 75 g/ha [10] | inhibition at 75 g/ha [11] | inhibition at 75 g/ha [12] | inhibition at 75 g/ha [13] | inhibition at 75 g/ha [14]

CC(C)C12CC(OCc3ccccc3I)C(C)(CC1Cl)O2 (centres unmarked) [1-1298, 5-chloro-2-[(2-iodophenyl)methoxy]-1-methyl-4-isopropyl-7-oxabicyclo[2.2.1]heptane]
≥ 80%: pest or weed control at 1200 g/ha [1] | pest or weed control at 1200 g/ha [2] | inhibition at 1200 g/ha [3] | inhibition at 1200 g/ha [4] | inhibition at 1200 g/ha [5] | inhibition at 1200 g/ha [6] | inhibition at 1200 g/ha [7] | inhibition at 1200 g/ha [8] | inhibition at 75 g/ha [9] | inhibition at 75 g/ha [10] | inhibition at 75 g/ha [11] | inhibition at 75 g/ha [12] | inhibition at 75 g/ha [13] | inhibition at 75 g/ha [14]

CC(C)C12CC(OCc3c(F)cccc3F)C(C)(CC1I)O2 (centres unmarked) [1-1446, 5-[(2,6-difluorophenyl)methoxy]-2-iodo-1-isopropyl-4-methyl-7-oxabicyclo[2.2.1]heptane]
≥ 80%: pest or weed control at 1200 g/ha [1] | pest or weed control at 1200 g/ha [2] | inhibition at 1200 g/ha [3] | inhibition at 1200 g/ha [4] | inhibition at 1200 g/ha [5] | inhibition at 1200 g/ha [6] | inhibition at 1200 g/ha [7] | inhibition at 1200 g/ha [8] | inhibition at 75 g/ha [9] | inhibition at 75 g/ha [10] | inhibition at 75 g/ha [11] | inhibition at 75 g/ha [12] | inhibition at 75 g/ha [13] | inhibition at 75 g/ha [14]

CC(C)[C@]12C[C@@H](OCc3c(F)cccc3Br)[C@](C)(C[C@@H]1Cl)O2 [1-1613, (1R,2S,4S,5R)-5-[(2-bromo-6-fluoro-phenyl)methoxy]-2-chloro-1-isopropyl-4-methyl-7-oxabicyclo[2.2.1]heptane]
≥ 80%: pest or weed control at 1200 g/ha [1] | pest or weed control at 1200 g/ha [2] | inhibition at 1200 g/ha [3] | inhibition at 1200 g/ha [4] | inhibition at 1200 g/ha [5] | inhibition at 1200 g/ha [6] | inhibition at 1200 g/ha [7] | inhibition at 1200 g/ha [8] | inhibition at 75 g/ha [9] | inhibition at 75 g/ha [10] | inhibition at 75 g/ha [11] | inhibition at 75 g/ha [12] | inhibition at 75 g/ha [13] | inhibition at 75 g/ha [14]

CC(C)C12CC(OCc3c(F)cccc3Cl)C(C)(CC1Cl)O2 (centres unmarked) [1-1315, 5-chloro-2-[(2-chloro-6-fluorophenyl)methoxy]-1-methyl-4-isopropyl-7-oxabicyclo[2.2.1]heptane]
≥ 80%: pest or weed control at 1200 g/ha [1] | pest or weed control at 1200 g/ha [2] | inhibition at 1200 g/ha [3] | inhibition at 1200 g/ha [4] | inhibition at 1200 g/ha [5] | inhibition at 1200 g/ha [6] | inhibition at 1200 g/ha [7] | inhibition at 1200 g/ha [8] | inhibition at 75 g/ha [9] | inhibition at 75 g/ha [10] | inhibition at 75 g/ha [11] | inhibition at 75 g/ha [12] | inhibition at 75 g/ha [13] | inhibition at 75 g/ha [14]

CC(C)C12CC(OCc3c(Cl)cccc3Cl)C(C)(CC1Cl)O2 (centres unmarked) [1-1314, 5-chloro-2-[(2,6-dichlorophenyl)methoxy]-1-methyl-4-isopropyl-7-oxabicyclo[2.2.1]heptane]
≥ 80%: pest or weed control at 1200 g/ha [1] | pest or weed control at 1200 g/ha [2] | inhibition at 1200 g/ha [3] | inhibition at 1200 g/ha [4] | inhibition at 1200 g/ha [5] | inhibition at 1200 g/ha [6] | inhibition at 1200 g/ha [7] | inhibition at 1200 g/ha [8] | inhibition at 75 g/ha [9] | inhibition at 75 g/ha [10] | inhibition at 75 g/ha [11] | inhibition at 75 g/ha [12] | inhibition at 75 g/ha [13] | inhibition at 75 g/ha [14]

CC#CCO[C@@H]1C[C@]2(C(C)C)O[C@@]1(C)C[C@@H]2I [1-734, (1R,2S,4S,5R)-5-but-2-ynoxy-2-iodo-1-isopropyl-4-methyl-7-oxabicyclo[2.2.1]heptane]
≥ 80%: pest or weed control at 1200 g/ha [1] | pest or weed control at 1200 g/ha [2] | inhibition at 1200 g/ha [3] | inhibition at 1200 g/ha [4] | inhibition at 1200 g/ha [5] | inhibition at 1200 g/ha [6] | inhibition at 1200 g/ha [7] | inhibition at 1200 g/ha [8] | inhibition at 75 g/ha [9] | inhibition at 75 g/ha [10] | inhibition at 75 g/ha [11] | inhibition at 75 g/ha [12] | inhibition at 75 g/ha [13] | inhibition at 75 g/ha [14]
